Laboratory results from paper PMC5218480 (PLoS ONE, 2017).

System: MV-4-11 cells
Assay: Gene expression microarray analysis (Affymetrix PrimeView) and GSEA
Assay type: cell-based, human
Parameters: RFU PODN (11730768_x_at) / Fold change /veh PODN (11730768_x_at) / RFU LINC00158 (11744669_a_at) / Fold change /veh LINC00158 (11744669_a_at) / RFU DUSP10 (11751237_a_at) / Fold change /veh DUSP10 (11751237_a_at) / RFU ID3 (11757404_x_at) / Fold change /veh ID3 (11757404_x_at) / RFU PLEKHG5 (11737974_s_at) / Fold change /veh PLEKHG5 (11737974_s_at) / RFU LRRC4B (11730491_at) / Fold change /veh LRRC4B (11730491_at) / RFU GIMAP4 (11747438_a_at) / Fold change /veh GIMAP4 (11747438_a_at) / RFU KRT8 (11758183_x_at) / Fold change /veh KRT8 (11758183_x_at) / RFU CNN1 (11734310_a_at) / Fold change /veh CNN1 (11734310_a_at) / RFU VPS37D (11726825_at) / Fold change /veh VPS37D (11726825_at) / RFU C10orf10 (11716522_x_at) / Fold change /veh C10orf10 (11716522_x_at) / RFU KIR2DL2 /// KIR2DL4 /// KIR2DL5A /// KIR2DL5B /// KIR2DS1 /// KIR2DS2 /// KIR2DS3 /// KIR2DS4 /// KIR3DL3 /// KIR3DL3 /// KIR3DS1 (11738374_at) / Fold change /veh KIR2DL2 /// KIR2DL4 /// KIR2DL5A /// KIR2DL5B /// KIR2DS1 /// KIR2DS2 /// KIR2DS3 /// KIR2DS4 /// KIR3DL3 /// KIR3DL3 /// KIR3DS1 (11738374_at) / RFU C1QL1 (11718748_at) / Fold change /veh C1QL1 (11718748_at) / RFU TMPRSS4 (11747572_a_at) / Fold change /veh TMPRSS4 (11747572_a_at) / RFU HAMP (11756126_x_at) / Fold change /veh HAMP (11756126_x_at) / RFU RNFT2 (11725882_a_at) / Fold change /veh RNFT2 (11725882_a_at) / RFU NR4A2 (11747474_a_at) / Fold change /veh NR4A2 (11747474_a_at) / RFU ABCC12 (11746883_a_at) / Fold change /veh ABCC12 (11746883_a_at) / RFU TMEM136 (11760407_x_at) / Fold change /veh TMEM136 (11760407_x_at) / RFU CLDN22 /// WWC2 (11732394_at) / Fold change /veh CLDN22 /// WWC2 (11732394_at) / RFU HLA-DPB1 (11760878_x_at) / Fold change /veh HLA-DPB1 (11760878_x_at) / RFU SPINT1 (11716480_a_at) / Fold change /veh SPINT1 (11716480_a_at) / RFU GAP43 (11754022_s_at) / Fold change /veh GAP43 (11754022_s_at) / RFU A4GNT (11735810_at) / Fold change /veh A4GNT (11735810_at) / RFU PRB3 (11715151_x_at) / Fold change /veh PRB3 (11715151_x_at) / RFU TUBB4B (11761932_at) / Fold change /veh TUBB4B (11761932_at) / RFU CAPN14 (11732068_a_at) / Fold change /veh CAPN14 (11732068_a_at) / RFU TMCC2 (11721928_a_at) / Fold change /veh TMCC2 (11721928_a_at) / RFU IRGQ (11745062_a_at) / Fold change /veh IRGQ (11745062_a_at) / RFU FAM174B (11720279_a_at) / Fold change /veh FAM174B (11720279_a_at) / RFU TMPRSS4 (11748680_a_at) / Fold change /veh TMPRSS4 (11748680_a_at) / RFU FAM212B (11763350_a_at) / Fold change /veh FAM212B (11763350_a_at) / RFU PLEKHG5 (11743358_a_at) / Fold change /veh PLEKHG5 (11743358_a_at) / RFU ZSCAN30 (11745921_a_at) / Fold change /veh ZSCAN30 (11745921_a_at) / RFU CMKLR1 (11741424_a_at) / Fold change /veh CMKLR1 (11741424_a_at) / RFU LOC101060620 /// MAPK8IP1 (11723275_at) / Fold change /veh LOC101060620 /// MAPK8IP1 (11723275_at) / RFU SPTSSB (11747773_x_at) / Fold change /veh SPTSSB (11747773_x_at) / RFU PRSS12 (11739890_at) / Fold change /veh PRSS12 (11739890_at) / RFU BIN1 (11741810_x_at) / Fold change /veh BIN1 (11741810_x_at) / RFU WNT11 (11732464_a_at) / Fold change /veh WNT11 (11732464_a_at) / RFU C10orf10 (11716521_a_at) / Fold change /veh C10orf10 (11716521_a_at) / RFU C5orf56 (11738089_at) / Fold change /veh C5orf56 (11738089_at) / RFU CYB561 (11721691_x_at) / Fold change /veh CYB561 (11721691_x_at) / RFU ANKRD19P (11752326_a_at) / Fold change /veh ANKRD19P (11752326_a_at) / RFU OR2T12 /// OR2T33 /// OR2T8 (11738714_s_at) / Fold change /veh OR2T12 /// OR2T33 /// OR2T8 (11738714_s_at) / RFU VCAN (11748164_a_at) / Fold change /veh VCAN (11748164_a_at) / RFU JSRP1 (11732532_at) / Fold change /veh JSRP1 (11732532_at) / RFU KRTAP10-11 (11738290_x_at) / Fold change /veh KRTAP10-11 (11738290_x_at) / RFU MYO3A (11730013_a_at) / Fold change /veh MYO3A (11730013_a_at) / RFU EBF3 (11725865_a_at) / Fold change /veh EBF3 (11725865_a_at) / RFU CAMK2N1 (11719241_x_at) / Fold change /veh CAMK2N1 (11719241_x_at) / RFU C5orf56 (11738088_a_at) / Fold change /veh C5orf56 (11738088_a_at) / RFU OLFML3 (11715873_a_at) / Fold change /veh OLFML3 (11715873_a_at) / RFU LOC100653217 /// NTM (11731650_a_at) / Fold change /veh LOC100653217 /// NTM (11731650_a_at) / RFU MAPK11 (11762145_a_at) / Fold change /veh MAPK11 (11762145_a_at) / RFU FIZ1 (11724087_x_at) / Fold change /veh FIZ1 (11724087_x_at) / RFU OASL (11726364_x_at) / Fold change /veh OASL (11726364_x_at) / RFU SOX15 (11748057_x_at) / Fold change /veh SOX15 (11748057_x_at) / RFU CD79A (11719716_a_at) / Fold change /veh CD79A (11719716_a_at) / RFU HIST1H1D (11736915_at) / Fold change /veh HIST1H1D (11736915_at) / RFU CASKIN2 (11723855_a_at) / Fold change /veh CASKIN2 (11723855_a_at) / RFU LOC730098 (11760151_x_at) / Fold change /veh LOC730098 (11760151_x_at) / RFU OR4N2 (11742367_at) / Fold change /veh OR4N2 (11742367_at) / RFU PRRT2 (11749266_a_at) / Fold change /veh PRRT2 (11749266_a_at) / RFU SNX32 (11753110_a_at) / Fold change /veh SNX32 (11753110_a_at) / RFU CDHR5 (11726645_a_at) / Fold change /veh CDHR5 (11726645_a_at) / RFU RCAN1 (11760418_a_at) / Fold change /veh RCAN1 (11760418_a_at) / RFU FAM167A (11723789_a_at) / Fold change /veh FAM167A (11723789_a_at) / RFU FAM26E (11764081_at) / Fold change /veh FAM26E (11764081_at) / RFU ISYNA1 (11749810_s_at) / Fold change /veh ISYNA1 (11749810_s_at) / RFU ACY1 (11761880_at) / Fold change /veh ACY1 (11761880_at) / RFU 11764098_at / Fold change /veh 11764098_at / RFU SAMD14 (11745864_x_at) / Fold change /veh SAMD14 (11745864_x_at) / RFU NPB (11741838_a_at) / Fold change /veh NPB (11741838_a_at) / RFU TMPRSS6 (11731388_a_at) / Fold change /veh TMPRSS6 (11731388_a_at) / RFU KRTAP10-2 (11738614_at) / Fold change /veh KRTAP10-2 (11738614_at) / RFU ARHGAP8 /// PRR5-ARHGAP8 (11727945_x_at) / Fold change /veh ARHGAP8 /// PRR5-ARHGAP8 (11727945_x_at) / RFU KRTAP5-7 /// NADSYN1 (11734609_at) / Fold change /veh KRTAP5-7 /// NADSYN1 (11734609_at) / RFU RASL12 (11751679_a_at) / Fold change /veh RASL12 (11751679_a_at) / RFU CDKN2B (11736163_a_at) / Fold change /veh CDKN2B (11736163_a_at) / RFU PRF1 (11729649_at) / Fold change /veh PRF1 (11729649_at) / RFU, ZNF638 /// ZNF638-IT1 / Fold change vs veh, ZNF638 /// ZNF638-IT1 / RFU, PANK3 / Fold change vs veh, PANK3 / RFU, SH3YL1 / Fold change vs veh, SH3YL1 / RFU, ZEB2 / Fold change vs veh, ZEB2 / RFU, NRIP1 / Fold change vs veh, NRIP1 / RFU, PTTG1IP / Fold change vs veh, PTTG1IP / RFU, CAPN2 / Fold change vs veh, CAPN2 / RFU, MED14 / Fold change vs veh, MED14 / RFU, SNORA58 / Fold change vs veh, SNORA58 / RFU, C1orf63 / Fold change vs veh, C1orf63 / RFU, LRRFIP1 / Fold change vs veh, LRRFIP1 / RFU, NDUFAF7 / Fold change vs veh, NDUFAF7 / RFU, SLC12A2 / Fold change vs veh, SLC12A2 / RFU, IBTK / Fold change vs veh, IBTK / RFU, ESF1 / Fold change vs veh, ESF1 / Fold change vs veh, TMEM50B / RFU, TAOK1 / Fold change vs veh, TAOK1 / RFU, ACBD3 / Fold change vs veh, ACBD3 / RFU, TMA16 / Fold change vs veh, TMA16 / RFU, RWDD3 / Fold change vs veh, RWDD3 / RFU, BCAT1 / Fold change vs veh, BCAT1 / RFU, EDEM3 / Fold change vs veh, EDEM3 / RFU, TMEM33 / Fold change vs veh, TMEM33 / RFU, WDR75 / Fold change vs veh, WDR75 / RFU, AHCTF1 / Fold change vs veh, AHCTF1 / RFU, TFRC / Fold change vs veh, TFRC / RFU, ZDHHC17 / Fold change vs veh, ZDHHC17 / RFU, NOM1 / Fold change vs veh, NOM1 / RFU, ARL8B / Fold change vs veh, ARL8B / RFU, ZBTB11 / Fold change vs veh, ZBTB11 / RFU, TAMM41 / Fold change vs veh, TAMM41 / RFU, KIAA1704 /// LOC100996395 / Fold change vs veh, KIAA1704 /// LOC100996395 / RFU, ING1 / Fold change vs veh, ING1 / RFU, TRMT61B / Fold change vs veh, TRMT61B / RFU, FUBP3 / Fold change vs veh, FUBP3 / RFU, TP53 / Fold change vs veh, TP53 / RFU, TNKS2 / Fold change vs veh, TNKS2 / RFU, ZFP14 / Fold change vs veh, ZFP14 / RFU, ACTR2 / Fold change vs veh, ACTR2 / RFU, PPP3R1 / Fold change vs veh, PPP3R1 / RFU, PIK3R1 / Fold change vs veh, PIK3R1 / RFU, HNRNPA1 / Fold change vs veh, HNRNPA1 / RFU, RNF170 / Fold change vs veh, RNF170 / RFU, ZNF28 / Fold change vs veh, ZNF28 / RFU, RNGTT / Fold change vs veh, RNGTT / RFU, OGT / Fold change vs veh, OGT / RFU, BRD1 / Fold change vs veh, BRD1 / RFU, MARS / Fold change vs veh, MARS / RFU, ZNF655 / Fold change vs veh, ZNF655 / RFU, FAHD1 / Fold change vs veh, FAHD1 / RFU, BDP1 / Fold change vs veh, BDP1 / RFU, LRRCC1 / Fold change vs veh, LRRCC1 / RFU, ARID1A / Fold change vs veh, ARID1A / RFU, ZNF146 / Fold change vs veh, ZNF146 / RFU, ZNF330 / Fold change vs veh, ZNF330 / RFU, GPN3 / Fold change vs veh, GPN3 / RFU, C9orf123 / Fold change vs veh, C9orf123 / RFU, N4BP2L2 / Fold change vs veh, N4BP2L2 / RFU, ARFIP1 / Fold change vs veh, ARFIP1 / RFU, FAM179B / Fold change vs veh, FAM179B / RFU, BCL10 / Fold change vs veh, BCL10 / RFU, UHRF1BP1L / Fold change vs veh, UHRF1BP1L / RFU, BET1 / Fold change vs veh, BET1 / RFU, CNOT2 / Fold change vs veh, CNOT2 / RFU, ZNF268 / Fold change vs veh, ZNF268 / Fold change vs veh, ZNF507 / RFU, DGCR2 / Fold change vs veh, DGCR2 / RFU, WDSUB1 / Fold change vs veh, WDSUB1 / Fold change vs veh, HSP90B1 /// MIR3652 / RFU, ADSS / Fold change vs veh, ADSS / RFU, GK / Fold change vs veh, GK / RFU, ZNF148 / Fold change vs veh, ZNF148 / RFU, TAF9 / Fold change vs veh, TAF9 / RFU, SLC1A5 / Fold change vs veh, SLC1A5 / RFU, SLMO2 / Fold change vs veh, SLMO2 / RFU, ABCC4 / Fold change vs veh, ABCC4 / RFU, LOC101060439 /// RAP1B / Fold change vs veh, LOC101060439 /// RAP1B / RFU, RFX7 / Fold change vs veh, RFX7 / RFU, GTPBP10 / Fold change vs veh, GTPBP10 / RFU, CNEP1R1 / Fold change vs veh, CNEP1R1 / RFU, BIVM-ERCC5 /// ERCC5 / Fold change vs veh, BIVM-ERCC5 /// ERCC5 / RFU, ILF3 / Fold change vs veh, ILF3 / RFU 11762660_at / Fold change /veh 11762660_at / RFU VCAN (11757783_s_at) / Fold change /veh VCAN (11757783_s_at) / RFU DDX43 (11728927_at) / Fold change /veh DDX43 (11728927_at) / RFU KRT8 (11758188_x_at) / Fold change /veh KRT8 (11758188_x_at) / RFU NKD1 (11759106_at) / Fold change /veh NKD1 (11759106_at) / RFU SRD5A1 (11742802_a_at) / Fold change /veh SRD5A1 (11742802_a_at) / RFU TPSAB1 /// TPSB2 (11721975_s_at) / Fold change /veh TPSAB1 /// TPSB2 (11721975_s_at) / RFU GSTM3 (11746129_a_at) / Fold change /veh GSTM3 (11746129_a_at) / RFU IL23R (11737362_x_at) / Fold change /veh IL23R (11737362_x_at) / RFU TMEM51 (11727254_a_at) / Fold change /veh TMEM51 (11727254_a_at) / RFU PIWIL2 (11732686_x_at) / Fold change /veh PIWIL2 (11732686_x_at) / RFU ORM1 (11744905_x_at) / Fold change /veh ORM1 (11744905_x_at) / RFU CCDC152 (11743942_at) / Fold change /veh CCDC152 (11743942_at) / RFU ECM1 (11717891_a_at) / Fold change /veh ECM1 (11717891_a_at) / RFU IL23R (11748794_a_at) / Fold change /veh IL23R (11748794_a_at) / RFU TNFAIP8L3 (11732012_x_at) / Fold change /veh TNFAIP8L3 (11732012_x_at) / RFU MBOAT4 (11741988_at) / Fold change /veh MBOAT4 (11741988_at) / RFU 11764193_at / Fold change /veh 11764193_at / RFU TMEM53 (11763286_at) / Fold change /veh TMEM53 (11763286_at) / RFU MAGEB2 (11727129_at) / Fold change /veh MAGEB2 (11727129_at) / RFU TMEM200A (11744735_a_at) / Fold change /veh TMEM200A (11744735_a_at) / RFU CCDC152 (11751479_a_at) / Fold change /veh CCDC152 (11751479_a_at) / RFU FAM211A (11726209_a_at) / Fold change /veh FAM211A (11726209_a_at) / RFU RGS16 (11746705_a_at) / Fold change /veh RGS16 (11746705_a_at) / RFU VCAN (11755009_s_at) / Fold change /veh VCAN (11755009_s_at) / RFU RHOB (11743442_s_at) / Fold change /veh RHOB (11743442_s_at) / RFU RGS16 (11720943_a_at) / Fold change /veh RGS16 (11720943_a_at) / RFU RGS16 (11720944_at) / Fold change /veh RGS16 (11720944_at) / RFU, VPS4B / Fold change vs veh, VPS4B / RFU, CREB1 / Fold change vs veh, CREB1 / RFU, DNAJC13 / Fold change vs veh, DNAJC13 / RFU, GNAQ / Fold change vs veh, GNAQ / RFU, CDK5R1 / Fold change vs veh, CDK5R1 / RFU, ZRANB3 / Fold change vs veh, ZRANB3 / RFU, CUL4A / Fold change vs veh, CUL4A / RFU, CCNY / Fold change vs veh, CCNY / RFU, UFL1 / Fold change vs veh, UFL1 / RFU, COG3 / Fold change vs veh, COG3 / RFU, DIAPH2 / Fold change vs veh, DIAPH2 / RFU, SKA2 / Fold change vs veh, SKA2 / RFU, AFF3 / Fold change vs veh, AFF3 / RFU, LMF1 / Fold change vs veh, LMF1 / RFU, IPO11 / Fold change vs veh, IPO11 / RFU, DFFB / Fold change vs veh, DFFB / RFU, FOXP1 / Fold change vs veh, FOXP1 / RFU, CARD8 / Fold change vs veh, CARD8 / RFU, STRN3 / Fold change vs veh, STRN3 / RFU, ADK / Fold change vs veh, ADK / RFU, RASSF2 / Fold change vs veh, RASSF2 / RFU, WIPF1 / Fold change vs veh, WIPF1 / RFU, LARP1B / Fold change vs veh, LARP1B / RFU, RASA1 / Fold change vs veh, RASA1 / RFU, RB1 / Fold change vs veh, RB1 / RFU, PPFIA1 / Fold change vs veh, PPFIA1 / RFU, MAT2A / Fold change vs veh, MAT2A / RFU, CCT5 / Fold change vs veh, CCT5 / RFU, WDR92 / Fold change vs veh, WDR92 / RFU, CUX1 / Fold change vs veh, CUX1 / RFU, TTC7A / Fold change vs veh, TTC7A / RFU, TMEM135 / Fold change vs veh, TMEM135 / RFU, DEPTOR / Fold change vs veh, DEPTOR / RFU, CPM / Fold change vs veh, CPM / RFU, DNAJB6 / Fold change vs veh, DNAJB6 / RFU, CACNA2D3 / Fold change vs veh, CACNA2D3 / RFU, DTX4 / Fold change vs veh, DTX4 / RFU, TFCP2 / Fold change vs veh, TFCP2 / RFU, GMCL1 /// GMCL1P1 / Fold change vs veh, GMCL1 /// GMCL1P1 / RFU, AEBP2 / Fold change vs veh, AEBP2 / RFU, SNHG1 /// SNORD22 /// SNORD25 /// SNORD26 /// SNORD27 /// SNORD28 /// SNORD29 /// SNORD31 / Fold change vs veh, SNHG1 /// SNORD22 /// SNORD25 /// SNORD26 /// SNORD27 /// SNORD28 /// SNORD29 /// SNORD31 / Fold change (Aza/veh), C12orf56 (ProbeSet 11735607_a_at) / Fold change (ACY-1035/veh), C12orf56 (ProbeSet 11735607_a_at) / Fold change (Aza/veh), FGFR1OP (ProbeSet 11751329_s_at) / Fold change (ACY-1035/veh), FGFR1OP (ProbeSet 11751329_s_at) / Fold change (Aza/veh), VPS36 (ProbeSet 11739960_a_at) / Fold change (ACY-1035/veh), VPS36 (ProbeSet 11739960_a_at) / RFU SYPL1 (11715823_x_at) / Fold change /veh SYPL1 (11715823_x_at) / RFU IGFBP7 (11715501_s_at) / Fold change /veh IGFBP7 (11715501_s_at) / RFU REEP3 (11722064_at) / Fold change /veh REEP3 (11722064_at) / RFU IGLL1 (11728026_x_at) / Fold change /veh IGLL1 (11728026_x_at): dose or concentration left out as unconfirmed
Conditions: MV-4-11 cells, 48 hours

For `Nc1ccc(-c2cccs2)cc1NC(=O)c1ccc2c(c1)cc(C1CC1)n2CCN1CCOCC1` [ACY-1035], the “Fold change /veh OLFML3 (11715873_a_at)” value was 1.17.
